Test results reported in patent publication US5962409A, “Somatostatin-analogous cyclic peptides with inhibitory activity on growth hormone” (priority 1995, dated 1999).

How the values were obtained:
[1] = system: 70 kDa complex (1 or 4 sub-type somatostatin receptors), GH 3 rat cell line; assay: Displacement of radioiodinated 11-Tyr somatostatin-14 from somatostatin receptors, 70 kDa complex (gel electrophoresis/autoradiography); format: binding; settings: 10^-6 M; auto-radiographies in electrophoresis
Protocol: (§1) The study of the binding of the peptides on somatostatin receptors has been carried out according to the displacement method which consists in replacing from the receptors the radioligand (11-Tyr radioiodinated somatostatin 14-) before electrophoretic analysis on a denaturant polyacrylaminde gel (Prevost et al. European J. Cancer, 11, 1589-1592,1993).
(§2) The biological activity was tested on rat and human cell lines, namely a GH 3 rat cell line established starting from a pituitary tumor with two 70 and 57 kDa receptors; MCF7 human cell line established starting from a pleural effusion of a breast carcinoma with two main 57 and 42 kDa receptors and human cell line established starting from a small cell carcinoma of the lung with a 57 kDa receptor.
(§3) The tested peptides were suspended in 0.1% acetic acid at the final concentration of 10 mM and stored at 4° C.
(§4) Tests were carried out at a 10^-6 M concentration.

[2] = system: 57 kDa complex (somatostatin receptor sub-type 2); assay: Displacement of radioiodinated 11-Tyr somatostatin-14 from somatostatin receptors, 57 kDa complex (gel electrophoresis/autoradiography); format: binding, rat and human; settings: 10^-6 M; auto-radiographies in electrophoresis
Protocol: as §1, §2, §3, §4

Row | displacement of the 57 kDa radioligand-receptor complex [2] | Compound | suppression of the 70 kDa radioligand-receptor complex [1]
1 | – | C[C@H](N)C(=O)NCC(=O)N[C@H]1CSSC[C@@H](C(=O)O)NC(=O)[C@H](CO)NC(=O)[C@H]([C@@H](C)O)NC(=O)[C@H](Cc2ccccc2)NC(=O)[C@H]([C@@H](C)O)NC(=O)[C@H](CCCCN)NC(=O)[C@H](Cc2c[nH]c3ccccc23)NC(=O)[C@H](Cc2ccccc2)NC(=O)[C@H](Cc2ccccc2)NC(=O)[C@H](CC(N)=O)NC(=O)[C@H](CCCCN)NC1=O [somatostatin-14] | suppressed
2 | not | Antarelix | –
